The numbers were not newly measured in patent publication US11801275B2, “Compositions and methods for common colds” (M. ALPHABET 3, LLC, priority 2017, dated 2023), which cites them from elsewhere.

Each structure is given as a SMILES string. Where two headings read alike, the source gives them in different places.

For data set [1], the system named is upper respiratory tract infections.
The subject of data set [2] is common cold.

As for `C=C1CC[C@H](O)C/C1=C/C=C1\CCC[C@]2(C)[C@@H]([C@H](C)CCCC(C)C)CC[C@@H]12` [vitamin D3], the “mean level of 25-hydroxy vitamin D” value in data set [1] (after oral vitamin D3 200,000 IU then 100,000 IU, increased from 29 (SD, 9) ng/mL, maintained throughout the study) is given as “greater than 48 ng/mL”. Further, in data set [1] (irrespective of season), the “difference versus placebo in upper respiratory tract infections, days of missed work, duration and severity of symptoms” value was “no statistically significant difference”.

Consider `O=C1O[C@H]([C@@H](O)CO)C(O)=C1O` [vitamin C, ascorbic acid], for which the “pooled risk ratio (RR) of developing a cold whilst taking vitamin C regularly” value in data set [2] (five trials, 598 marathon runners, skiers and soldiers on subarctic exercises, 95% CI 0.35 to 0.64) is recorded as 0.48; in data set [2] (general community trials, 10,708 participants, 95% CI 0.94 to 1.00), 0.97. Further, the “effect on the duration or severity of colds” value in data set [2] (therapeutic trials) is listed as “no consistent effect”.
